Laboratory results published in patent US7192983B2, “N-protected/N-substituted-beta-amino hydroxy sulfonates” (G.D. Searle & Co., priority 1995, dated 2007).

Assay: Determination of storage stability at ambient temperature (purity by HPLC)
Assay type: physicochemical
Description: 2S-[Bis (phenylmethyl) amino]-1-hydroxy-3-phenylpropyl sulfonic acid, sodium salt (5 grams) was treated with stirring with an aqueous solution of 5 grams of potassium carbonate in 50 mL of water at room temperature. The aqueous solution was extracted once with a 50 mL portion of ethyl acetate. The organic solvent solutions were combined and removed under reduced pressure. The residue was dissolved in the tetrahydrofuran (THF), filtered through a cotton filter plug and the solvent removed under reduced pressure. […] The samples were placed on the column diluted in 90% hexane, 5% isopropanol and 5% tert-butylmethyl ether.
The experiment extended through 61 days with purity determinations made on days 0 (t=0), 3 (t=3), 6 (t=6), 18 (t=18) and 61 (t=61). A sample of the salt was treated with aqueous potassium carbonate and extracted with ethyl acetate on day 0. The ethyl acetate was removed under reduced pressure to provide the aldehyde and this sample was used as a t=0 […] reference standard for the stability determination (“Aldehyde Sample”). The t=0 sample of the aldehyde was then stored at ambient temperature in a capped, brown glass bottle side by side with the stored sample of the salt. The purity of the salt was then measured on days 3 (t=3), 8 (t=8), 15 (t=15) and 21 (t=21).

% aldehyde remaining (day 8, stored at ambient temperature in capped brown glass bottle): 64% | % aldehyde remaining (day 15, stored at ambient temperature in capped brown glass bottle): 23% | % aldehyde remaining (day 18, stored at ambient temperature in capped brown glass bottle): 10%
SMILES: O=C[C@H](Cc1ccccc1)N(Cc1ccccc1)Cc1ccccc1 [Aldehyde Sample, 2S-[bis(phenylmethyl)amino]-3-phenylpropanal]
